The text below walks through data of patent US20240368106A1, “HYDROXY AND ALKOXY COUMARINS AS MODULATORS OF POLRMT” (Pretzel Therapeutics, Inc., priority 2021, published 2024).

Broadly, the IC50 is the concentration needed to halve the response being measured.

This experiment addresses POLRMT (Homo sapiens (Human), UniProt O00411). As to the kind of experiment: homogeneous TR-FRET assay of mitochondrial transcription (inhibition of POLRMT). Type of experiment: biochemical. Particulars: 7.5 nM POLRMT, 15 nM TFB2M, 30 nM TFAM, 0.5 nM DNA template, 500 μM NTPs, 37° C., 60 minutes. The procedure:
The inhibitory activity of the compounds of the present invention against POLRMT were determined by assays based on Bergbrede, T., et al., “An adaptable high-throughput technology enabling the identification of specific transcription modulators,” SLAC Discov., 22, 378-386 (2017).
The ability of some compounds of the present invention to inhibit POLRMT were determined in a homogeneous TR-FRET Assay using high-throughput screening in a 384-well plate format. This method is used to monitor the activity of mitochondrial transcription through measurement of its product, a 407 bp long RNA transcript. Detection of the product is facilitated by hybridization of two DNA-oligonucleotide probes to specific and adjacent sequences within the RNA product sequence. Upon annealing of the probes, two fluorophores are coupled directly to an acceptor nucleotide probe (ATT0647, 5′), or introduced via a coupled streptavidin with a biotinylated donor nucleotide probe (Europium cryptate) that is brought into sufficient proximity to serve as a fluorescence-donor-acceptor pair. Thus, a FRET signal at 665 nm is generated upon excitation at 340 nm.
Proteins used as transcription factors (POLRMT: NP_005026.3, TFAM: NP_003192.1, TFB2M: NP_071761.1) are diluted from their stocks to working concentrations of 1 μM, 20 μM and 4 μM respectively, in a dilution buffer containing 20 mM Tris-HCl (pH 8.0), 200 mM NaCl, 10% (v/v) glycerol, 1 mM Dithiothreitol (DTT), 0.5 mM EDTA.
DNA template is a pUC18 plasmid with the mitochondrial light strand promotor sequence (1-477) cloned between HindIII and BamHI sites. The DNA template is restriction linearized proximal to the promotor 3′-end (pUC-LSP). The reaction mixture (10 uL) containing 7.5 nM POLRMT, 15 nM of TFB2M, 30 nM of TFAM, 0.5 nM of DNA template and 500 μM nucleotide triphosphate mix (NTPs) in a reaction buffer (containing 10 mM Tris-HCl (pH 7.5), 10 mM MgCl2, 40 mM NaCl, 10 mM DTT, 0.005% (w/v) Tween-20, 160 units/ml Rnase inhibitor and 0.1 mg/mL BSA) are dispensed to compounds in microplates, using a Thermo Multidrop® dispenser, and incubated at 37° C. in a VWR INCU-Line incubator for 60 minutes after mixing. No nucleotide triphosphate mix is added to negative control samples. Microplates with compounds to be tested in the assay are prepared from 10 mM compound stocks in 100% DMSO, equal amounts of DMSO without any compound are added to positive control and negative control samples.
During the incubation, a mix of the detection reagents is prepared in a buffer such that the enzymatic reaction is terminated due to chelating of Mg-ions and increased ionic strength, containing 50 mM Tris-HCl (pH 7.5), 700 mM NaCl, 20 mM EDTA, and 0.010% (w/v) Tween-20. Europium-streptavidin is pre-incubated with a 200-fold molar excess of a random sequence oligonucleotide to block unspecific binding of oligo, for two hours at ambient temperature in the dark. Afterwards, the blocked Europium-streptavidin is kept on ice until use.
At the end of the enzymatic reaction time, 5 μL detection oligo mix in the detection buffer is added, and assay plates are mixed and kept at ambient temperature for one hour, protected from light. The concentration of the Acceptor nucleotide oligo (e.g., ATTO647N-5′-[…]-3′) and Donor nucleotide oligo (e.g., bio-5′-AACACATCTCT(-bio)GCCAAACCCCA-bio-3′) in each assay well is 1 nM, and 3 nM, respectively.
After incubation with oligo mix, 5 μL of pre-blocked Europium-streptavidin reagent is dispensed to each assay well, assay plates are again mixed and kept at ambient temperature for one hour, protected from light.
The generated signal is measured with BMG Pherastar microtiter plate reader with a TRF light unit, using excitation at 340 nm, an integration time of 200 μs, and a delay time of 100 μs, before detection at 620 nm and 665 nm. The ratio of donor- and acceptor-fluorescence is used as a measure of the generated transcript product (i.e. enzymatic activity).
A general note: Time-resolved FRET reads energy transfer from a long-lived donor to a nearby acceptor.

POLRMT, sequence (O00411 42-1230): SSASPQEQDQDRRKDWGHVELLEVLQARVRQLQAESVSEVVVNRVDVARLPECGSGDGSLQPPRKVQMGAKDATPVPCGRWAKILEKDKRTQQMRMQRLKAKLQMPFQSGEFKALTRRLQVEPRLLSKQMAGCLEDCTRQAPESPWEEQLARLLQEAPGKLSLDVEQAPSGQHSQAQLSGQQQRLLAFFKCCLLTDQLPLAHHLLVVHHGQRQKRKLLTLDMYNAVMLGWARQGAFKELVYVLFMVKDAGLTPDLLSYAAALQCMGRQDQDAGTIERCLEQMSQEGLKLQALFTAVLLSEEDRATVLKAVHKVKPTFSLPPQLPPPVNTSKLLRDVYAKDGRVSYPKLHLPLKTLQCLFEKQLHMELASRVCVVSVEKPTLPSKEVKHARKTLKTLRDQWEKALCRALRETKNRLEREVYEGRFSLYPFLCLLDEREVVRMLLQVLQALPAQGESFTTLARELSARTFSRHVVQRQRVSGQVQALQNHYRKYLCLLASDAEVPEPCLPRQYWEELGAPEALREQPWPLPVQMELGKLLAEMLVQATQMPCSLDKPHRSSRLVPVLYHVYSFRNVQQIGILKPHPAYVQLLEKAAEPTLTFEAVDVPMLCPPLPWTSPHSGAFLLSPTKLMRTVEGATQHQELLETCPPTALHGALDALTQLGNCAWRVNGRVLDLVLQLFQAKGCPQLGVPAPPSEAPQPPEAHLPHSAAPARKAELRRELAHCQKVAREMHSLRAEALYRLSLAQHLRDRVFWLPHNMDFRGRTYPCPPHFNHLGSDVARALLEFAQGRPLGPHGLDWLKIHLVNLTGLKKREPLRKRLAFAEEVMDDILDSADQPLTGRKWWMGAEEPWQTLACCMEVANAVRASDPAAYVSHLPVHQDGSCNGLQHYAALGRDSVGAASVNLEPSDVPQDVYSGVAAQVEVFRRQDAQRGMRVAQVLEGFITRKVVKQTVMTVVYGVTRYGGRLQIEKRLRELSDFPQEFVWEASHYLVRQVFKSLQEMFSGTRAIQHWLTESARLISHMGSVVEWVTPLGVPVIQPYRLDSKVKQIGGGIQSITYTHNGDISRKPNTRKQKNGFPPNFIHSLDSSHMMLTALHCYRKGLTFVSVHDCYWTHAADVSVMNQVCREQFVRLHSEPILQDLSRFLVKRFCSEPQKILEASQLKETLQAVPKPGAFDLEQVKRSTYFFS

Compound “2-((4-(2-chloro-4-fluorophenyl)-2-oxo-2H-chromen-7-yl)oxy)-3-methoxypropanamide [Example 76]” registered an IC50 of 44000 nM. “2-((4-(2-chloro-4-fluorophenyl)-2-oxo-2H-chromen-7-yl)oxy)-3-methoxypropanamide [Example 77]” showed an IC50 of 2000 nM. To `COCC(C)Oc1ccc2c(-c3ccccc3C)cc(=O)oc2c1` (racemic) [Example 25, 7-((1-methoxypropan-2-yl)oxy)-4-(o-tolyl)-2H-chromen-2-one] belongs 300 nM; to `COCC(C)Oc1ccc2c(-c3ccccc3C)cc(=O)oc2c1` (single isomer, unassigned) [Example 26, 7-((1-methoxypropan-2-yl)oxy)-4-(o-tolyl)-2H-chromen-2-one], 300 nM; to `COCC(C)Oc1ccc2c(-c3ccccc3C)cc(=O)oc2c1` (single isomer, unassigned) [Example 27, 7-((1-methoxypropan-2-yl)oxy)-4-(o-tolyl)-2H-chromen-2-one], 600 nM. Compound `Cc1ccccc1-c1cc(=O)oc2cc(OCC3CCCCO3)ccc12` (single isomer, unassigned) [Example 39, 7-((tetrahydro-2H-pyran-2-yl)methoxy)-4-(o-tolyl)-2H-chromen-2-one] came in with an IC50 of 900 nM. Then `Cc1ccccc1-c1cc(=O)oc2cc(OCC3CCCCO3)ccc12` (single isomer, unassigned) [Example 40, 7-((tetrahydro-2H-pyran-2-yl)methoxy)-4-(o-tolyl)-2H-chromen-2-one], with 3000 nM; and `Cc1ccccc1-c1cc(=O)oc2cc(OC(C)C#N)ccc12` (single isomer, unassigned) [Example 42, 2-((2-oxo-4-(o-tolyl)-2H-chromen-7-yl)oxy)propanenitrile], with 50 nM; and `Cc1ccccc1-c1cc(=O)oc2cc(OC(C)C#N)ccc12` (single isomer, unassigned) [Example 43, 2-((2-oxo-4-(o-tolyl)-2H-chromen-7-yl)oxy)propanenitrile], with 1000 nM. `CCC(COC)Oc1ccc2c(-c3ccccc3C)cc(=O)oc2c1` (single isomer, unassigned) [Example 45, 7-((1-methoxybutan-2-yl)oxy)-4-(o-tolyl)-2H-chromen-2-one] displayed an IC50 of 100 nM. On to `CCC(COC)Oc1ccc2c(-c3ccccc3C)cc(=O)oc2c1` (single isomer, unassigned) [Example 46, 7-((1-methoxybutan-2-yl)oxy)-4-(o-tolyl)-2H-chromen-2-one], for which the IC50 came out at 300 nM.

Consider `Cc1ccccc1-c1cc(=O)oc2cc(OC3CCCOC3)ccc12` (single isomer, unassigned) [Example 48, 7-((tetrahydro-2H-pyran-3-yl)oxy)-4-(o-tolyl)-2H-chromen-2-one], for which half-maximal inhibition (IC50) was put at 3000 nM. Consider `Cc1ccccc1-c1cc(=O)oc2cc(OC3CCCOC3)ccc12` (single isomer, unassigned) [Example 49, 7-((tetrahydro-2H-pyran-3-yl)oxy)-4-(o-tolyl)-2H-chromen-2-one], for which 1000 nM corresponded to half-maximal inhibition (IC50). As to `COCC(C)Oc1cc(C)c2c(-c3ccccc3C)cc(=O)oc2c1` (single isomer, unassigned) [Example 59, 7-((1-methoxypropan-2-yl)oxy)-5-methyl-4-(o-tolyl)-2H-chromen-2-one], 600 nM corresponded to half-maximal inhibition (IC50). To `COCC(C)Oc1cc(C)c2c(-c3ccccc3C)cc(=O)oc2c1` (single isomer, unassigned) [Example 60, 7-((1-methoxypropan-2-yl)oxy)-5-methyl-4-(o-tolyl)-2H-chromen-2-one] belongs 500 nM; to `COCC(Oc1ccc2c(-c3ccc(F)cc3Cl)cc(=O)oc2c1)C(N)=O` (single isomer, unassigned) [Example 74, 2-((4-(2-chloro-4-fluorophenyl)-2-oxo-2H-chromen-7-yl)oxy)-3-methoxypropanamide], 13000 nM. Compound `COCC(Oc1ccc2c(-c3ccc(F)cc3Cl)cc(=O)oc2c1)C(N)=O` (single isomer, unassigned) [Example 75, 2-((4-(2-chloro-4-fluorophenyl)-2-oxo-2H-chromen-7-yl)oxy)-3-methoxypropanamide] showed an IC50 of 2000 nM. To `Cc1ccccc1-c1cc(=O)oc2cc(OC(CO)C(=O)N(C)C)ccc12` (single isomer, unassigned) [Example 78, 3-hydroxy-N,N-dimethyl-2-[4-(o-tolyl)-2-oxo-2H-chromen-7-yl]oxy-propanamide] belongs 500 nM; to `Cc1ccccc1-c1cc(=O)oc2cc(OC(CO)C(=O)N(C)C)ccc12` (single isomer, unassigned) [Example 79, 3-hydroxy-N,N-dimethyl-2-[4-(o-tolyl)-2-oxo-2H-chromen-7-yl]oxy-propanamide], 32000 nM; to `CCNC(=O)C(COC)Oc1ccc2c(-c3ccccc3C)cc(=O)oc2c1` (single isomer, unassigned) [Example 80, N-ethyl-3-methoxy-2-((2-oxo-4-(o-tolyl)-2H-chromen-7-yl)oxy)propanamide], 15000 nM. On to `CCNC(=O)C(COC)Oc1ccc2c(-c3ccccc3C)cc(=O)oc2c1` (single isomer, unassigned) [Example 81, N-ethyl-3-methoxy-2-((2-oxo-4-(o-tolyl)-2H-chromen-7-yl)oxy)propanamide], for which the 50% inhibitory concentration (IC50) worked out at 200 nM. In the case of `COCC(Oc1ccc2c(-c3ccccc3C)cc(=O)oc2c1)C(=O)NCC(F)(F)F` (single isomer, unassigned) [Example 82, 3-methoxy-2-((2-oxo-4-(o-tolyl)-2H-chromen-7-yl)oxy)-N-(2,2,2-trifluoroethyl)propanamide], the IC50 turned out to be 5000 nM. As for `COCC(Oc1ccc2c(-c3ccccc3C)cc(=O)oc2c1)C(=O)NCC(F)(F)F` (single isomer, unassigned) [Example 83, 3-methoxy-2-((2-oxo-4-(o-tolyl)-2H-chromen-7-yl)oxy)-N-(2,2,2-trifluoroethyl)propanamide], half-maximal inhibition (IC50) was put at 200 nM. `COCC(Oc1ccc2c(-c3ccc(F)cc3Cl)cc(=O)oc2c1)C(=O)N(C)C` (single isomer, unassigned) [Example 85, 2-((4-(2-chloro-4-fluorophenyl)-2-oxo-2H-chromen-7-yl)oxy)-3-methoxy-N,N-dimethylpropanamide] came in with an IC50 of 200 nM.

`COCC(Oc1ccc2c(-c3ccc(F)cc3Cl)cc(=O)oc2c1)C(=O)N(C)C` (single isomer, unassigned) [Example 86, 2-((4-(2-chloro-4-fluorophenyl)-2-oxo-2H-chromen-7-yl)oxy)-3-methoxy-N,N-dimethylpropanamide]: the concentration for half-maximal inhibition (IC50) is over 100000 nM. To `COCCNC(=O)C(COC)Oc1ccc2c(-c3ccccc3C)cc(=O)oc2c1` (single isomer, unassigned) [Example 87, 3-methoxy-N-(2-methoxyethyl)-2-((2-oxo-4-(o-tolyl)-2H-chromen-7-yl)oxy)propanamide] belongs 36000 nM; to `COCCNC(=O)C(COC)Oc1ccc2c(-c3ccccc3C)cc(=O)oc2c1` (single isomer, unassigned) [Example 88, 3-methoxy-N-(2-methoxyethyl)-2-((2-oxo-4-(o-tolyl)-2H-chromen-7-yl)oxy)propanamide], 500 nM.
